The values that follow are results of earlier work, collected in patent US7446222B2, “Phenyl compounds” (Glaxo Group Limited, priority 2002, dated 2008).

Data set [1] concerns the target T1, human EP1 prostanoid receptor (Homo sapiens, UniProt P34995).
T1 sequence (P34995 1-402): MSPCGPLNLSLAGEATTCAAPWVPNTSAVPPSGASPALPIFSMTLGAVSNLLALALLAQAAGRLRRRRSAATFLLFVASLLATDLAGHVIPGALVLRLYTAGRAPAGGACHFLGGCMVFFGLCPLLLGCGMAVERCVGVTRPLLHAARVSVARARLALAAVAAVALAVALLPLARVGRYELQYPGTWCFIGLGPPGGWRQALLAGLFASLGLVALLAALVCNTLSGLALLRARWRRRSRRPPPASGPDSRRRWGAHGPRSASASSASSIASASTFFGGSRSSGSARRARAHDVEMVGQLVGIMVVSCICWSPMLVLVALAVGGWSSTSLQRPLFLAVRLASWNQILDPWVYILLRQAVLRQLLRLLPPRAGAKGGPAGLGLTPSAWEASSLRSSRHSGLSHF
As to conditions: human EP1 prostanoid receptor ligand.

Data set [2] concerns rat model of chronic constriction injury.
In data set [3] the test system is rodent model of post-operative pain.

In the case of `O=C(O)c1ccc(-c2ccccc2-c2ccccc2OCc2ccccc2)cc1` [2-benzyloxy[1,1′;2′,1″]terphenyl-4″-carboxylic acid], in data set [1], the “potency compared with the comparable 2,3-diarylthiophene compound” value is recorded as “less potent” and the “selectivity compared with the comparable 2,3-diarylthiophene compound” value was “less selective”.

With `Cc1cc(Cl)ccc1S(=O)(=O)NC[C@H]1C2CCC(CC2)[C@@H]1/C=C\CCCC(=O)O` [ONO-8711], the “effect on hyperalgesia and allodynia” value in data set [2] is “reduces hyperalgesia and allodynia”. Besides, in data set [3], the “effect on mechanical hyperalgesia” value was “inhibits mechanical hyperalgesia”.
